Test system: malignant breast tumors
Experiment: not given
Conditions: at 4 weeks, treated mice; cited from earlier work

**Q.** Which “reduction in tumor volume” value does the source give for CCCCCCOC(=O)NC(=N)c1ccc(NCc2nc3cc(C(=O)N(CCC(=O)OCC)c4ccccn4)ccc3n2C)cc1 [dabigatran etexilate] here?
**A.** The value was 50%.

Same assay, conditions: at 4 weeks; cited from earlier work

**Q.** Which “weight loss in treated mice” value does the source give for CCCCCCOC(=O)NC(=N)c1ccc(NCc2nc3cc(C(=O)N(CCC(=O)OCC)c4ccccn4)ccc3n2C)cc1 [dabigatran etexilate] here?
**A.** Its value is “no weight loss”.

Same assay, conditions: treated mice; cited from earlier work

**Q.** With CCCCCCOC(=O)NC(=N)c1ccc(NCc2nc3cc(C(=O)N(CCC(=O)OCC)c4ccccn4)ccc3n2C)cc1 [dabigatran etexilate] as the molecule, how does the “reduced tumor cells in the blood and liver micrometastases” value read?
**A.** The value was 50-60%.

Biological target: T1, Human thrombin (Homo sapiens, UniProt P00734)
T1 construct: purchased Haematologic Technologies Inc
Experiment: Inhibition of the protease activity of thrombin (chromogenic substrate S-2238)
Assay type: biochemical
Conditions: Table C; 3 nM thrombin, 125 μM S-2238, 10 min pre-incubation, RT

**Q.** Which IC50 does the source give for O=C(c1cccnc1)n1nc(-c2cccnc2)nc1NCc1ccco1 [Cmpd 396, N-(furan-2-ylmethyl)-3-(pyridin-3-yl)-1-[(pyridin-3-yl)carbonyl]-1H-1,2,4-triazol-5-amine] here?
**A.** Its IC50 is over 1000 nM.

**Q.** For O=C(c1ccccc1Cl)n1nc(-c2cccs2)nc1NCc1ccccc1 [Cmpd 409, N-benzyl-1-[(2-chlorophenyl)carbonyl]-3-(thiophen-2-yl)-1H-1,2,4-triazol-5-amine], which IC50 is on record?
**A.** Its IC50 is under 100 nM.

**Q.** For Nc1nc(-c2ccco2)n[nH]1 [Cmpd 25, 3-(furan-2-yl)-1H-1,2,4-triazol-5-amine], which IC50 is on record?
**A.** The IC50 was over 1000 nM.

**Q.** For CC(C)(C)C(=O)n1nc(-c2ccco2)nc1NCc1ccc(F)cc1 [Cmpd 309, 1-(5-[(4-fluorophenyl)methyl]amino-3-(furan-2-yl)-1H-1,2,4-triazol-1-yl)-2,2-dimethylpropan-1-one], which IC50 is on record?
**A.** Its IC50 is under 100 nM.

**Q.** For CCC(=O)n1nc(-c2ccco2)nc1NCc1ccccc1 [Cmpd 348, 1-[5-(benzylamino)-3-(furan-2-yl)-1H-1,2,4-triazol-1-yl]propan-1-one], which IC50 is on record?
**A.** Its IC50 is under 100 nM.

**Q.** Which IC50 does the source give for CS(=O)(=O)n1nc(C(=O)N2CCOCC2)nc1N [Cmpd 360, 1-methanesulfonyl-3-[(morpholin-4-yl)carbonyl]-1H-1,2,4-triazol-5-amine] here?
**A.** Its IC50 is over 1000 nM.

**Q.** For COc1ccc(CNc2nc(-c3ccco3)nn2C(=O)c2ccc(C)cc2)cc1 [Cmpd 371, 3-(furan-2-yl)-N-[(4-methoxyphenyl)methyl]-1-[(4-methylphenyl)carbonyl]-1H-1,2,4-triazol-5-amine], which IC50 is on record?
**A.** The IC50 was 100 to 1000 nM.

**Q.** Which IC50 does the source give for COc1ccc(CNc2nc(-c3cccnc3)nn2C(=O)Cc2ccccc2)cc1 [Cmpd 319, 1-(5-[(4-methoxyphenyl)methyl]amino-3-(pyridin-3-yl)-1H-1,2,4-triazol-1-yl)-2-phenylethan-1-one] here?
**A.** The IC50 was under 100 nM.

**Q.** For CCC(=O)n1nc(-c2ccccc2)nc1NCc1ccccc1 [Cmpd 355, 1-[5-(benzylamino)-3-phenyl-1H-1,2,4-triazol-1-yl]propan-1-one], which IC50 is on record?
**A.** The IC50 was 100 to 1000 nM.

**Q.** Which IC50 does the source give for CC(=O)n1nc(-c2cccnc2)nc1NCc1ccc(C)cc1 [Cmpd 325, 1-(5-[(4-methylphenyl)methyl]amino-3-(pyridin-3-yl)-1H-1,2,4-triazol-1-yl)ethan-1-one] here?
**A.** The IC50 was under 100 nM.

**Q.** Which IC50 does the source give for Nc1nc(C(=O)N2CCOCC2)nn1S(=O)(=O)c1ccc(Cl)cc1 [Cmpd 337, 1-[(4-chlorobenzene)sulfonyl]-3-[(morpholin-4-yl)carbonyl]-1H-1,2,4-triazol-5-amine] here?
**A.** The IC50 was over 1000 nM.

Same assay, conditions: inhibition of the protease activity of thrombin

**Q.** Which IC50 does the source give for COc1ccccc1C(=O)n1nc(-c2ccccn2)cc1NCc1ccco1 [Cmpd 201, N-(furan-2-ylmethyl)-1-[(2-methoxyphenyl)carbonyl]-3-(pyridin-2-yl)-1H-pyrazol-5-amine] here?
**A.** The IC50 was 100 to 1000 nM.

**Q.** With O=C(Oc1ccccc1)n1nc(-c2cccnc2)nc1NCc1ccc(F)cc1 [Cmpd 298, phenyl 5-[(4-fluorophenyl)methyl]amino-3-(pyridin-3-yl)-1H-1,2,4-triazole-1-carboxylate] as the molecule, how does the IC50 read?
**A.** The IC50 was under 100 nM.

**Q.** With Cc1ccc(C(=O)n2nc(-c3ccccn3)nc2NCc2ccccc2)c(F)c1 [Cmpd 249, N-benzyl-1-[(2-fluoro-4-methylphenyl)carbonyl]-3-(pyridin-2-yl)-1H-1,2,4-triazol-5-amine] as the molecule, how does the IC50 read?
**A.** The IC50 was under 100 nM.

**Q.** Which IC50 does the source give for CC(C)c1ccccc1C(=O)n1nc(-c2ccccn2)cc1NCc1ccccc1 [Cmpd 276, N-benzyl-1-[2-(propan-2-yl)phenyl]carbonyl-3-(pyridin-2-yl)-1H-pyrazol-5-amine] here?
**A.** The IC50 was over 1000 nM.

**Q.** With COc1ccccc1C(=O)n1nc(-c2ccncc2)nc1NCc1ccc(F)cc1 [Cmpd 207, N-[(4-fluorophenyl)methyl]-1-[(2-methoxyphenyl)carbonyl]-3-(pyridin-4-yl)-1H-1,2,4-triazol-5-amine] as the molecule, how does the IC50 read?
**A.** The IC50 was under 100 nM.

**Q.** For O=C(c1ccsc1)n1nc(-c2ccccn2)nc1NCc1ccccc1 [Cmpd 283, N-benzyl-3-(pyridin-2-yl)-1-[(thiophen-3-yl)carbonyl]-1H-1,2,4-triazol-5-amine], which IC50 is on record?
**A.** The IC50 was under 100 nM.

**Q.** Which IC50 does the source give for O=C(c1ccccc1Cl)n1nc(-c2ccccn2)cc1NCc1ccccc1 [Cmpd 244, N-benzyl-1-[(2-chlorophenyl)carbonyl]-3-(pyridin-2-yl)-1H-pyrazol-5-amine] here?
**A.** Its IC50 is 100 to 1000 nM.

**Q.** For CC(C)c1ccccc1C(=O)n1nc(-c2ccccn2)nc1NCc1ccccc1 [Cmpd 275, N-benzyl-1-[2-(propan-2-yl)phenyl]carbonyl-3-(pyridin-2-yl)-1H-1,2,4-triazol-5-amine], which IC50 is on record?
**A.** The IC50 was over 1000 nM.

**Q.** With COc1cc(C)ccc1C(=O)n1nc(-c2ccccc2)nc1NCc1ccc(F)cc1 [Cmpd 205, N-[(4-fluorophenyl)methyl]-1-[(2-methoxy-4-methylphenyl)carbonyl]-3-phenyl-1H-1,2,4-triazol-5-amine] as the molecule, how does the IC50 read?
**A.** The IC50 was 100 to 1000 nM.

**Q.** Which IC50 does the source give for O=C(c1ccsc1)n1nc(-c2ccccn2)nc1NCc1ccc(F)cc1 [Cmpd 219, N-[(4-fluorophenyl)methyl]-3-(pyridin-2-yl)-1-[(thiophen-3-yl)carbonyl]-1H-1,2,4-triazol-5-amine] here?
**A.** The IC50 was under 100 nM.

**Q.** For CN(C)c1ccccc1C(=O)n1nc(-c2ccccn2)nc1NCc1ccccc1 [Cmpd 273, N-benzyl-1-[2-(dimethylamino)phenyl]carbonyl-3-(pyridin-2-yl)-1H-1,2,4-triazol-5-amine], which IC50 is on record?
**A.** Its IC50 is over 1000 nM.

**Q.** For COc1ccccc1C(O)c1cc(-c2ccccn2)nn1CCc1ccc(F)cc1 (stereo not shown) [Cmpd 304, 1-[2-(4-fluorophenyl)ethyl]-3-(pyridin-2-yl)-1H-pyrazol-5-yl(2-methoxyphenyl)methanol], which IC50 is on record?
**A.** Its IC50 is over 1000 nM.

Same assay, conditions: inhibition of the protease activity of thrombin; class symbols a/b/c

**Q.** With O=C(c1cccc2c1OC(F)(F)O2)n1nc(-c2ccccc2)nc1NCc1ccc(F)cc1 [Cmpd 101, 1-[(2,2-difluoro-2H-1,3-benzodioxol-4-yl)carbonyl]-N-[(4-fluorophenyl)methyl]-3-phenyl-1H-1,2,4-triazol-5-amine] as the molecule, how does the IC50 read?
**A.** The IC50 was over 1000 nM.

**Q.** Which IC50 does the source give for CC(C)(C)C(=O)n1nc(-c2cccs2)nc1NCc1ccc(F)cc1 [Cmpd 82, 1-(5-[(4-fluorophenyl)methyl]amino-3-(thiophen-2-yl)-1H-1,2,4-triazol-1-yl)-2,2-dimethylpropan-1-one] here?
**A.** Its IC50 is under 100 nM.

**Q.** With COc1ccc(C(=O)n2nc(-c3ccccn3)nc2NCc2ccccc2)c(N)c1 [Cmpd 104, 1-[(2-amino-4-methoxyphenyl)carbonyl]-N-benzyl-3-(pyridin-2-yl)-1H-1,2,4-triazol-5-amine] as the molecule, how does the IC50 read?
**A.** The IC50 was under 100 nM.

**Q.** For COc1ccc(CNc2nc(-c3cccnc3)nn2C(=O)C(C)(C)C)cc1 [Cmpd 94, 1-(5-[(4-methoxyphenyl)methyl]amino-3-(pyridin-3-yl)-1H-1,2,4-triazol-1-yl)-2,2-dimethylpropan-1-one], which IC50 is on record?
**A.** Its IC50 is under 100 nM.

**Q.** With O=C(Nc1ccccc1)c1cn(-c2ccccn2)nc1NCc1ccc(F)cc1 [Cmpd 183, 3-[(4-fluorophenyl)methyl]amino-N-phenyl-1-(pyridin-2-yl)-1H-pyrazole-4-carboxamide] as the molecule, how does the IC50 read?
**A.** Its IC50 is over 1000 nM.

**Q.** With O=C(Nc1nc(C(=O)N2CCOCC2)n[nH]1)c1ccccc1Cl [Cmpd 170, 2-chloro-N-3-[(morpholin-4-yl)carbonyl]-1H-1,2,4-triazol-5-ylbenzamide] as the molecule, how does the IC50 read?
**A.** Its IC50 is over 1000 nM.

**Q.** Which IC50 does the source give for CC(C)C(=O)n1nc(-c2ccncc2)nc1NCc1ccccc1 [Cmpd 146, 1-[5-(benzylamino)-3-(pyridin-4-yl)-1H-1,2,4-triazol-1-yl]-2-methylpropan-1-one] here?
**A.** Its IC50 is under 100 nM.

**Q.** With CC(C)(C)C(=O)n1nc(-c2ccco2)nc1NCc1ccccc1 [Cmpd 136, 1-[5-(benzylamino)-3-(furan-2-yl)-1H-1,2,4-triazol-1-yl]-2,2-dimethylpropan-1-one] as the molecule, how does the IC50 read?
**A.** Its IC50 is under 100 nM.

**Q.** Which IC50 does the source give for COc1ccc(CNc2nc(-c3ccccn3)nn2C(=O)CC(C)C)cc1 [Cmpd 90, 1-(5-[(4-methoxyphenyl)methyl]amino-3-(pyridin-2-yl)-1H-1,2,4-triazol-1-yl)-3-methylbutan-1-one] here?
**A.** Its IC50 is under 100 nM.

**Q.** For CC(C)CC(=O)n1nc(-c2ccccn2)cc1NCc1ccccc1 [Cmpd 144, 1-[5-(benzylamino)-3-(pyridin-2-yl)-1H-pyrazol-1-yl]-3-methylbutan-1-one], which IC50 is on record?
**A.** Its IC50 is 100 to 1000 nM.

**Q.** For COc1ccc(CNc2nc(-c3ccccn3)nn2C(=O)c2ccccc2)cc1 [Cmpd 157, 1-benzoyl-N-[(4-methoxyphenyl)methyl]-3-(pyridin-2-yl)-1H-1,2,4-triazol-5-amine], which IC50 is on record?
**A.** The IC50 was 100 to 1000 nM.

**Q.** Which IC50 does the source give for CCC(=O)n1nc(-c2ccco2)nc1NCc1ccc(F)cc1 [Cmpd 63, 1-(5-[(4-fluorophenyl)methyl]amino-3-(furan-2-yl)-1H-1,2,4-triazol-1-yl)propan-1-one] here?
**A.** Its IC50 is under 100 nM.

**Q.** With CC(C)NC(=O)n1nc(-c2cccnc2)nc1NCc1ccc(F)cc1 [Cmpd 190, 5-[(4-fluorophenyl)methyl]amino-N-(propan-2-yl)-3-(pyridin-3-yl)-1H-1,2,4-triazole-1-carboxamide] as the molecule, how does the IC50 read?
**A.** Its IC50 is over 1000 nM.

**Q.** For COc1ccccc1C(=O)n1nc(-c2cncnc2)nc1NCc1ccccc1 [Cmpd 34], which IC50 is on record?
**A.** Its IC50 is under 100 nM.

**Q.** Which IC50 does the source give for Cc1c(-c2ccccc2)nn(C(=O)C(C)(C)C)c1NCc1ccc(F)cc1 [Cmpd 38] here?
**A.** Its IC50 is over 1000 nM.

**Q.** With Nc1ccccc1C(=O)n1nc(-c2ccccn2)nc1NCc1ccccc1 [Cmpd 109, 1-[(2-aminophenyl)carbonyl]-N-benzyl-3-(pyridin-2-yl)-1H-1,2,4-triazol-5-amine] as the molecule, how does the IC50 read?
**A.** The IC50 was under 100 nM.

**Q.** For O=C(O)c1cc(-c2ccccn2)nn1CCc1ccc(F)cc1 [Cmpd 52], which IC50 is on record?
**A.** Its IC50 is over 1000 nM.

**Q.** Which IC50 does the source give for O=C(c1cc(-c2ccccn2)n(CCc2ccc(F)cc2)n1)N1CCCCC1 [Cmpd 59] here?
**A.** The IC50 was over 1000 nM.

**Q.** With O=C(Nc1ccccc1F)n1nc(-c2cccnc2)nc1NCc1ccc(F)cc1 [Cmpd 18] as the molecule, how does the IC50 read?
**A.** Its IC50 is over 1000 nM.

**Q.** Which IC50 does the source give for COc1ccccc1C(=O)n1nc(-c2ccccn2)cc1NCc1ccsc1 [Cmpd 118, 1-[(2-methoxyphenyl)carbonyl]-3-(pyridin-2-yl)-N-(thiophen-3-ylmethyl)-1H-pyrazol-5-amine] here?
**A.** The IC50 was 100 to 1000 nM.
